91 compounds from PubChem BioAssay AID540252 (Sanford-Burnham Center for Chemical Genomics, 2011) can be followed below.

Active and inactive are the calls of the source. No rule for the calls is given here.

The assay has as its target glucose-6-phosphate dehydrogenase-6-phosphogluconolactonase (Plasmodium falciparum 3D7). Put plainly: PfG6PD enzyme inhibitors, direct NADPH readout, dose response, orthogonal assay, biochemical, end-point NADPH detection (AID 540252). To be noted: purified PfG6PD enzyme.
For `N#Cc1ccc(Oc2cccc3cccnc23)c([N+](=O)[O-])c1`, the IC50 was > 80 µM (inactive).

As to `CN(C)c1ccc(C=c2c3cc([N+](=O)[O-])ccc3n3c2cc(-c2ccccc2)[n+]3C)cc1`, the half-maximal inhibitory concentration (IC50) was 33.2 µM.

On to `COc1cc(N)c2ncccc2c1Cl`, for which the IC50 was > 80 µM (inactive).

On to `CCN(CC)c1ccc(C(=C2C=CC(=[N+](CC)CC)C=C2)c2ccccc2)cc1`, for which the IC50 was > 80 µM (inactive).

Regarding `Cc1c(/C=C/C(=O)c2ccc(Cl)s2)cnn1C`, the IC50 is > 80 µM (inactive).

For the compound `O=C(Nc1nnc(S(=O)(=O)N2CCCC2)s1)c1cccc([N+](=O)[O-])c1`, the IC50 is > 80 µM (inactive).

Regarding `CCSc1nc2cc(S(=O)(=O)N3CCOCC3)ccc2o1`, the IC50 was > 80 µM (inactive).

For the compound `O=c1c2ccccc2sn1-c1cccc(Cl)c1`, the half-maximal inhibitory concentration (IC50) is 13.7 µM.

As to `Cc1ccc(/C=C/C(=O)NCC2COc3ccccc3O2)o1` (stereo unspecified), the IC50 was > 80 µM (inactive).

For the compound `O=C(Nc1nc(-c2ccncc2)cs1)C1COc2ccccc2O1` (stereo unspecified), the IC50 was > 80 µM (inactive).

Consider `COc1ccc(C(=O)/C=C2\Sc3ccccc3N2C)cc1`, for which the IC50 was > 80 µM (inactive).

For `CC1(OC(=O)C2CCCC2)C(=O)C=C2C=C(c3ccsc3)N(CCc3c[nH]c4ccccc34)C=C2C1=O` (stereo unspecified), the IC50 was > 80 µM (inactive).

For `Cn1c(-c2sccc2OCc2cccc(C(F)(F)F)c2)n[nH]c1=S`, the IC50 was > 80 µM (inactive).

`CCCCCCCCSC1=CC(=O)C(OC)=C(OC)C1=O`: the IC50 was > 80 µM (inactive).

Regarding `COc1cccc(C2(c3cccc(OC)c3)CC2C(=O)Nc2ccc(F)cc2)c1` (stereo unspecified), the IC50 is > 80 µM (inactive).

Turning to `Cc1nc(COC(=O)c2cc(O)c3ccccc3c2O)cs1`, the IC50 is > 80 µM (inactive).

Take `COc1cccc(CNc2ccc3[nH]c(=O)[nH]c3c2)c1OCc1ccc(F)cc1`: the IC50 is > 80 µM (inactive).

Regarding `O=S(=O)(Nc1cc(Sc2cccc3cccnc23)c(O)c2ccccc12)c1ccc(F)cc1`, the IC50 is > 80 µM (inactive).

For the compound `CCn1c2ccccc2c2nc3cc(S(=O)(=O)N4CCOCC4)ccc3nc21`, the IC50 was > 80 µM (inactive).

For the compound `Cc1cc(C)nc(NC(N)=NCCc2ccccc2)n1`, the IC50 is > 80 µM (inactive).

Regarding `CCc1ccc(S(=O)(=O)Nc2cc(SCC(=O)O)c(O)c3ccccc23)cc1`, the IC50 is > 80 µM (inactive).

As to `O=C(Nc1nnc(C2CC2)s1)c1ccc(Cl)nc1`, the IC50 was > 80 µM (inactive).

As for `Cc1cc(C)c2c(=N)c3ccccc3n(CCCCCCCCn3c4ccccc4c(=N)c4c(C)cc(C)nc43)c2n1`, the IC50 was > 80 µM (inactive).

Consider `COc1cccc(CNc2ccc3[nH]c(=O)[nH]c3c2)c1OCc1ccccc1Cl`, for which the IC50 was > 80 µM (inactive).

Turning to `O=C(CCC(=O)Nc1ccccc1Cl)N/N=C/c1ccccc1`, the IC50 was > 80 µM (inactive).

For the compound `CN1CCc2cccc3c2[C@@H]1Cc1ccc(O)c(O)c1-3`, the IC50 was > 80 µM (inactive).

Turning to `CC(Cc1ccc(O)c(O)c1)C(C)Cc1ccc(O)c(O)c1` (stereo unspecified), the half-inhibitory concentration (IC50) is 68.4 µM.

In the case of `Oc1ccc(NCc2ccccc2OCc2ccccc2)cc1`, the IC50 is > 80 µM (inactive).

In the case of `Cc1cc(C)c2c(=O)n(CC(=O)Nc3cccc(F)c3)sc2n1`, the IC50 was > 80 µM (inactive).

In the case of `O=C1Nc2ccccc2C(=O)C1(Cl)Cc1ccccc1` (stereo unspecified), the IC50 was > 80 µM (inactive).

Consider `COc1cc(NCCCn2cnc3c(OCc4ccccc4)ncnc32)cc(OC)c1OC`, for which the IC50 is > 80 µM (inactive).

As for `Cc1ccc(/C=C/C(=O)NCc2ccc(S(N)(=O)=O)cc2)o1`, the IC50 was > 80 µM (inactive).

Turning to `CCn1c(=O)n(CC)c2cc(N3CCCC3)c(NC(=O)c3cccc(C)c3)cc21`, the IC50 was > 80 µM (inactive).

For the compound `COc1ccc(CCn2c(NN=C3CCCCC3)nc3c2c(=O)[nH]c(=O)n3C)cc1`, the IC50 is > 80 µM (inactive).

In the case of `COC1=C(N)C(=O)c2nc(C)ccc2C1=O`, the IC50 is > 80 µM (inactive).

For the compound `Cn1c(=O)[nH]c(=O)c2c1nc(SCCN1CCCCC1)n2CCCc1ccccc1`, the IC50 is > 80 µM (inactive).

Turning to `O=C(CSc1nc2ccc(Cl)cc2[nH]1)NC1CCCc2ccccc21` (stereo unspecified), the IC50 was > 80 µM (inactive).

`Oc1ccc(C2C[C@H]3CC[C@@H]2C3)cc1O` (stereo partly specified): the half-maximal inhibitory concentration (IC50) is 31.3 µM.

As for `CC(C)(C)NC(=O)COc1ccc(CNc2ccc3[nH]c(=O)[nH]c3c2)cc1`, the IC50 was > 80 µM (inactive).

Turning to `CCCCOc1ccc(Cc2n[nH]c(=S)n2N)cc1`, the IC50 was > 80 µM (inactive).

For the compound `CSc1nnc(NC(=O)c2ccc3c(c2)OCO3)s1`, the IC50 was > 80 µM (inactive).

As for `O=C(O)c1ccccc1NS(=O)(=O)c1cccc(-n2sc3ccccc3c2=O)c1`, the IC50 was > 80 µM (inactive).

In the case of `Cc1ccc(/C=C/C(=O)Nc2ccc([N+](=O)[O-])c(NC(=O)/C=C/c3ccc(C)o3)c2)o1`, the concentration for half-maximal inhibition (IC50) is 33.6 µM.

For `Cc1cc(C(=O)O)ccc1-n1c(C)cc(C=C2C(=O)c3ccccc3C2=O)c1C`, the IC50 was > 80 µM (inactive).

In the case of `CCN(CC)C(=O)c1c(C)[nH]c(=S)c(C#N)c1-c1ccco1`, the IC50 was > 80 µM (inactive).

Turning to `Cc1ccc(S(=O)(=O)N(C(=O)c2ccncc2)c2ccc(OC(=O)c3ccncc3)c3ccccc23)cc1`, the IC50 is > 80 µM (inactive).

For `O=c1[nH]nc(CNc2ccc(O)cc2)c2ccccc12`, the IC50 is > 80 µM (inactive).

With `CCOc1ccc(Cl)cc1/C=N/NC(N)=O`, the IC50 was > 80 µM (inactive).

For `CCN(CC)c1nc(N)nc(NS(=O)(=O)c2ccc(Cl)cc2)n1`, the IC50 was > 80 µM (inactive).

Consider `Cc1ccc(NC(=O)c2ccc(Cl)c(N3C(=O)C=CC3=O)c2)cc1`, for which the half-maximal inhibitory concentration (IC50) is 33.4 µM.

For the compound `CC1=C(C)CS(=O)N(S(=O)(=O)c2ccc(Cl)cc2)C1` (stereo unspecified), the IC50 is > 80 µM (inactive).

Take `O=C1OC(c2ccc3ccccc3c2O)(c2ccc3ccccc3c2O)c2ccccc21`: the IC50 was > 80 µM (inactive).

Turning to `O=C(CCSCCC(=O)NN=Cc1ccccc1)NN=Cc1ccccc1`, the IC50 is > 80 µM (inactive).

`COc1cc(Sc2ccc(C)cc2)c(OC)cc1N`: the IC50 is > 80 µM (inactive).

As to `O=[N+]([O-])c1cccc(SSc2cccc([N+](=O)[O-])c2)c1`, the IC50 was 45.3 µM.

Consider `Cc1ccc(S(=O)(=O)N(C)C)cc1NC(=O)CSc1nc2ncc(Cl)cc2[nH]1`, for which the IC50 was > 80 µM (inactive).

With `COc1cccc(C(=O)Nc2nnc(C(C)C)s2)c1`, the IC50 is > 80 µM (inactive).

Turning to `CN(C)c1cccc2c1c(NC(=O)c1ccc(Cl)cc1)nn2C`, the IC50 is > 80 µM (inactive).

In the case of `O=C(COC(=O)c1ccc2c(c1[N+](=O)[O-])C(=O)c1ccccc1C2=O)NC1CC1`, the IC50 was > 80 µM (inactive).

With `N#CC1=C(N)Oc2c(O)cc3ccccc3c2C1c1ccsc1` (stereo unspecified), the IC50 is > 80 µM (inactive).

Turning to `O=C(Sc1n[nH]c(=O)[nH]c1=O)c1ccccc1`, the IC50 was 23.3 µM.

Turning to `CN(C)c1ccc(C=c2c3cc(O)ccc3n3c2cc(-c2ccccc2)[n+]3C)cc1`, the IC50 is > 80 µM (inactive).

As to `Cc1ccc(CNc2ccc(O)cc2)cc1`, the IC50 is > 80 µM (inactive).

With `COc1cc(C(=O)O/N=C2\C=CC(=O)C=C2C)cc(OC)c1OC`, the IC50 was > 80 µM (inactive).

Take `COc1ccc(Cl)cc1NC(=O)c1cccc([N+](=O)[O-])c1O`: the IC50 is > 80 µM (inactive).

As to `CC(=O)Nc1cc(OC(C)=O)c2nonc2c1OC(C)=O`, the IC50 was > 80 µM (inactive).

For the compound `O=C(O)c1cccc(N2C(=O)C=CC2=O)c1`, the IC50 was 67.4 µM.

On to `Cc1ccc(SC2=C(Sc3ccc(C)cc3)C(=O)c3ccccc3C2=O)cc1`, for which the IC50 is > 80 µM (inactive).

Take `CN(CCO)c1cc(Sc2nc3ccccc3s2)c2nonc2c1[N+](=O)[O-]`: the IC50 is 24 µM.

`CCN(CC)CCNC(=O)CCCCn1c(=S)[nH]c2c([nH]c3ccc(OC)cc32)c1=O`: the IC50 is > 80 µM (inactive).

With `CC1CN(c2ccccc2)NC1=O` (stereo unspecified), the IC50 is > 80 µM (inactive).

For the compound `O=S(=O)(Nc1c(O)ccc2ccccc12)c1ccccc1`, the IC50 is > 80 µM (inactive).

`CC(=O)Nc1ccc2sn(-c3ccccc3)c(=O)c2c1`: the concentration for half-maximal inhibition (IC50) was 18.2 µM.

Take `O=c1ccsn1Cc1ccccc1`: the IC50 was 55.8 µM.

`O=C(Cn1sc2ccccc2c1=O)NC12CC3CC(CC(C3)C1)C2`: the half-maximal inhibitory concentration (IC50) was 15.1 µM.

Turning to `Cc1[nH]c2ccccc2c1/C=N/Nc1nncn1N`, the IC50 was > 80 µM (inactive).

For the compound `NS(=O)(=O)c1ccc(-c2ccc(C=C3C(=O)NC(=O)NC3=O)o2)cc1`, the IC50 was > 80 µM (inactive).

In the case of `c1ccc(-c2nc(N3CCOCC3)s[n+]2-c2ccccc2)cc1`, the IC50 was > 80 µM (inactive).

As for `CC1(C)Cc2c(sc3nc4n(-c5ccccc5)c(=O)c(CCC(=O)O)nn4c(=O)c23)CO1`, the IC50 is 8.84 µM.

For the compound `CCC1(C)CC(C(N)=S)CCO1` (stereo unspecified), the IC50 was > 80 µM (inactive).

Turning to `CCC(c1ccc(O)c(O)c1)C(CC)c1ccc(O)c(O)c1` (stereo unspecified), the IC50 was > 80 µM (inactive).

With `C=CCc1c(C)[nH]c(=S)c(C#N)c1C`, the IC50 was > 80 µM (inactive).

As to `O=c1[nH]c2ccc(NCc3ccccc3OCc3ccc(Cl)cc3)cc2[nH]1`, the IC50 is > 80 µM (inactive).

Regarding `CCN(CC)c1ccc(C(=C2C=CC(=[N+](CC)CC)C=C2)c2ccc(N(CC)CC)cc2)cc1`, the IC50 was 39.6 µM.

Turning to `ClC(Cl)(c1nnnn1-c1ccccc1)c1nnnn1-c1ccccc1`, the IC50 is 56.2 µM.

As for `CCC1(CC)Cc2ccccc2C(N)=C1C#N`, the IC50 is > 80 µM (inactive).

With `COc1ccc(Nc2cc(C)c3c(O)cccc3n2)cc1`, the IC50 was > 80 µM (inactive).

For the compound `O=C(Nc1nnc(S(=O)(=O)N2CCCCC2)s1)c1cccc(Br)c1`, the IC50 is > 80 µM (inactive).

`O=C1C(c2cc(=O)c3ccccc3[nH]2)=C(O)c2ccccc21`: the IC50 was > 80 µM (inactive).

On to `Cc1ccc(-n2c(N)c(C(=O)N3CCN(C)CC3)sc2=S)cc1`, for which the 50% inhibitory concentration (IC50) was 55.2 µM.

As for `CCN(CC)c1ccc(NC(=O)c2cccc(C)c2)cc1S(=O)(=O)Nc1ccccc1OC`, the IC50 was > 80 µM (inactive).

One may read the IC50 as the midpoint of a concentration-inhibition curve.
